Calls of active or inactive are those of the source.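 The calls were made as follows: active = rise or fall in EGR1 growth-response protein of at least 30% versus solvent-only treated cells; inactive = EGR1 protein change under 30% either way.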
Each molecule was assayed against Early growth response protein 1 (Homo sapiens) (UniProt P18146) (assay: EGR1 protein level reduction in HCT116 cells, late-stage follow-up, counter-screen for KLF5 inhibitor project, cell-based, HCT116 colorectal carcinoma, chemiluminescent western blot (AID 588644)). Settings: 24 h, at 10 µM, stronger effect = higher value.
For `CN(C(=O)CNC(=O)/C=C/c1cccc(Cl)c1)C1CCS(=O)(=O)CC1`, the inhibition was -3.53% (inactive).
`CN(C(=O)COC(=O)/C=C/c1cccc([N+](=O)[O-])c1)C1CCS(=O)(=O)C1` (stereo not drawn) was tested, and the inhibition was 28.4% (inactive).
`CN(C(=O)CNC(=O)/C=C/c1cccc(Cl)c1)C1CCS(=O)(=O)C1` (stereo not drawn) was tested, and the inhibition was 18.6% (inactive).

Reference: PubChem BioAssay AID588644 (The Scripps Research Institute Molecular Screening Center, 2011)
